In the CheMixHub viscosity set:
± gives the uncertainty stated by the source.

Assay: xn = mol fraction of the nth substance listed
Details: 100 kPa

Question: What does the source list for CS(=O)(=O)O + O?
Answer: viscosity (293.15 K, x1 = 0.003409): 1.037 ± 0.1 mPa·s; viscosity (293.15 K, x1 = 0.004307): 1.042 ± 0.1 mPa·s; viscosity (293.15 K, x1 = 0.005194): 1.051 ± 0.11 mPa·s; viscosity (293.15 K, x1 = 0.006086): 1.064 ± 0.11 mPa·s; viscosity (293.15 K, x1 = 0.006979): 1.073 ± 0.11 mPa·s; viscosity (293.15 K, x1 = 0.007862): 1.08 ± 0.11 mPa·s; viscosity (293.15 K, x1 = 0.008752): 1.088 ± 0.11 mPa·s; viscosity (293.15 K, x1 = 0.0177): 1.173 ± 0.12 mPa·s; viscosity (293.15 K, x1 = 0.02629): 1.264 ± 0.13 mPa·s; viscosity (293.15 K, x1 = 0.03475): 1.351 ± 0.14 mPa·s; viscosity (293.15 K, x1 = 0.04308): 1.441 ± 0.14 mPa·s; viscosity (293.15 K, x1 = 0.05122): 1.523 ± 0.15 mPa·s; viscosity (293.15 K, x1 = 0.05919): 1.609 ± 0.16 mPa·s; viscosity (293.15 K, x1 = 0.06721): 1.728 ± 0.17 mPa·s; viscosity (293.15 K, x1 = 0.07493): 1.826 ± 0.18 mPa·s; viscosity (293.15 K, x1 = 0.08256): 1.934 ± 0.19 mPa·s; viscosity (293.15 K, x1 = 0.09015): 2.046 ± 0.21 mPa·s; viscosity (293.15 K, x1 = 0.09748): 2.16 ± 0.22 mPa·s; viscosity (293.15 K, x1 = 0.1048): 2.299 ± 0.23 mPa·s; viscosity (293.15 K, x1 = 0.112): 2.411 ± 0.24 mPa·s; viscosity (298.15 K, x1 = 0.003409): 0.9229 ± 0.093 mPa·s; viscosity (298.15 K, x1 = 0.004307): 0.9279 ± 0.093 mPa·s; viscosity (298.15 K, x1 = 0.005194): 0.9391 ± 0.094 mPa·s; viscosity (298.15 K, x1 = 0.006086): 0.9475 ± 0.095 mPa·s; viscosity (298.15 K, x1 = 0.006979): 0.9565 ± 0.096 mPa·s; viscosity (298.15 K, x1 = 0.007862): 0.964 ± 0.097 mPa·s; viscosity (298.15 K, x1 = 0.008752): 0.972 ± 0.097 mPa·s; viscosity (298.15 K, x1 = 0.0177): 1.048 ± 0.11 mPa·s; viscosity (298.15 K, x1 = 0.02629): 1.131 ± 0.11 mPa·s; viscosity (298.15 K, x1 = 0.03475): 1.211 ± 0.12 mPa·s; viscosity (298.15 K, x1 = 0.04308): 1.293 ± 0.13 mPa·s; viscosity (298.15 K, x1 = 0.05122): 1.368 ± 0.14 mPa·s; viscosity (298.15 K, x1 = 0.05919): 1.448 ± 0.15 mPa·s; viscosity (298.15 K, x1 = 0.06721): 1.556 ± 0.16 mPa·s; viscosity (298.15 K, x1 = 0.07493): 1.647 ± 0.17 mPa·s; viscosity (298.15 K, x1 = 0.08256): 1.745 ± 0.17 mPa·s; viscosity (298.15 K, x1 = 0.09015): 1.847 ± 0.19 mPa·s; viscosity (298.15 K, x1 = 0.09748): 1.95 ± 0.2 mPa·s; viscosity (298.15 K, x1 = 0.1048): 2.076 ± 0.21 mPa·s; viscosity (298.15 K, x1 = 0.112): 2.177 ± 0.22 mPa·s; viscosity (303.15 K, x1 = 0.003409): 0.827 ± 0.083 mPa·s; viscosity (303.15 K, x1 = 0.004307): 0.833 ± 0.084 mPa·s; viscosity (303.15 K, x1 = 0.005194): 0.8431 ± 0.085 mPa·s; viscosity (303.15 K, x1 = 0.006086): 0.8496 ± 0.085 mPa·s; viscosity (303.15 K, x1 = 0.006979): 0.8598 ± 0.086 mPa·s; viscosity (303.15 K, x1 = 0.007862): 0.866 ± 0.087 mPa·s; viscosity (303.15 K, x1 = 0.008752): 0.873 ± 0.088 mPa·s; viscosity (303.15 K, x1 = 0.0177): 0.9423 ± 0.095 mPa·s; viscosity (303.15 K, x1 = 0.02629): 1.02 ± 0.1 mPa·s; viscosity (303.15 K, x1 = 0.03475): 1.094 ± 0.11 mPa·s; viscosity (303.15 K, x1 = 0.04308): 1.169 ± 0.12 mPa·s; viscosity (303.15 K, x1 = 0.05122): 1.237 ± 0.12 mPa·s; viscosity (303.15 K, x1 = 0.05919): 1.311 ± 0.13 mPa·s; viscosity (303.15 K, x1 = 0.06721): 1.41 ± 0.14 mPa·s; viscosity (303.15 K, x1 = 0.07493): 1.493 ± 0.15 mPa·s; viscosity (303.15 K, x1 = 0.08256): 1.583 ± 0.16 mPa·s; viscosity (303.15 K, x1 = 0.09015): 1.676 ± 0.17 mPa·s; viscosity (303.15 K, x1 = 0.09748): 1.769 ± 0.18 mPa·s; viscosity (303.15 K, x1 = 0.1048): 1.885 ± 0.19 mPa·s; viscosity (303.15 K, x1 = 0.112): 1.977 ± 0.2 mPa·s; viscosity (308.15 K, x1 = 0.003409): 0.7471 ± 0.075 mPa·s; viscosity (308.15 K, x1 = 0.0177): 0.8535 ± 0.086 mPa·s; viscosity (308.15 K, x1 = 0.02629): 0.9254 ± 0.093 mPa·s; viscosity (308.15 K, x1 = 0.03475): 0.9939 ± 0.1 mPa·s; viscosity (308.15 K, x1 = 0.04308): 1.064 ± 0.11 mPa·s; viscosity (308.15 K, x1 = 0.05122): 1.126 ± 0.11 mPa·s; viscosity (308.15 K, x1 = 0.05919): 1.193 ± 0.12 mPa·s; viscosity (308.15 K, x1 = 0.06721): 1.285 ± 0.13 mPa·s; viscosity (308.15 K, x1 = 0.07493): 1.361 ± 0.14 mPa·s; viscosity (308.15 K, x1 = 0.08256): 1.444 ± 0.14 mPa·s; viscosity (308.15 K, x1 = 0.09015): 1.529 ± 0.15 mPa·s; viscosity (308.15 K, x1 = 0.09748): 1.615 ± 0.16 mPa·s; viscosity (308.15 K, x1 = 0.1048): 1.719 ± 0.17 mPa·s; viscosity (308.15 K, x1 = 0.112): 1.803 ± 0.18 mPa·s; viscosity (313.15 K, x1 = 0.0177): 0.7777 ± 0.078 mPa·s; viscosity (313.15 K, x1 = 0.02629): 0.8437 ± 0.085 mPa·s; viscosity (313.15 K, x1 = 0.03475): 0.9081 ± 0.091 mPa·s; viscosity (313.15 K, x1 = 0.04308): 0.9738 ± 0.098 mPa·s; viscosity (313.15 K, x1 = 0.05122): 1.031 ± 0.1 mPa·s; viscosity (313.15 K, x1 = 0.05919): 1.094 ± 0.11 mPa·s; viscosity (313.15 K, x1 = 0.06721): 1.176 ± 0.12 mPa·s; viscosity (313.15 K, x1 = 0.07493): 1.247 ± 0.12 mPa·s; viscosity (313.15 K, x1 = 0.08256): 1.323 ± 0.13 mPa·s; viscosity (313.15 K, x1 = 0.09015): 1.402 ± 0.14 mPa·s; viscosity (313.15 K, x1 = 0.09748): 1.48 ± 0.15 mPa·s; viscosity (313.15 K, x1 = 0.1048): 1.576 ± 0.16 mPa·s; viscosity (313.15 K, x1 = 0.112): 1.652 ± 0.17 mPa·s; viscosity (318.15 K, x1 = 0.0177): 0.713 ± 0.072 mPa·s; viscosity (318.15 K, x1 = 0.02629): 0.7737 ± 0.078 mPa·s; viscosity (318.15 K, x1 = 0.03475): 0.834 ± 0.084 mPa·s; viscosity (318.15 K, x1 = 0.04308): 0.8939 ± 0.09 mPa·s; viscosity (318.15 K, x1 = 0.05122): 0.948 ± 0.095 mPa·s; viscosity (318.15 K, x1 = 0.05919): 1.007 ± 0.1 mPa·s; viscosity (318.15 K, x1 = 0.06721): 1.083 ± 0.11 mPa·s; viscosity (318.15 K, x1 = 0.07493): 1.148 ± 0.12 mPa·s; viscosity (318.15 K, x1 = 0.08256): 1.218 ± 0.12 mPa·s; viscosity (318.15 K, x1 = 0.09015): 1.291 ± 0.13 mPa·s; viscosity (318.15 K, x1 = 0.09748): 1.363 ± 0.14 mPa·s; viscosity (318.15 K, x1 = 0.1048): 1.452 ± 0.15 mPa·s; viscosity (318.15 K, x1 = 0.112): 1.519 ± 0.15 mPa·s
